ChEMBL document CHEMBL2331210, “New 2-benzylsulfanyl-nicotinic acid based 1,3,4-oxadiazoles: their synthesis and biological evaluation” (2013)
Values after ≈ are worked out from the molar mass of the structure shown.

How the values were obtained:
SR = test: Antitumor activity against human SR cells assessed as cell growth at 0.1 uM; format: functional; settings: read-out: Activity
[1] = Antitumor activity against human Hs 578T cells assessed as cell growth at 0.1 uM; format: functional; settings: read-out: Activity
CAKI-1 = test: Antitumor activity against human CAKI-1 cells assessed as cell growth at 0.1 uM; format: functional; settings: read-out: Activity
SNB-19 = test: Antitumor activity against human SNB19 cells assessed as cell growth at 0.1 uM; format: functional; settings: read-out: Activity
[2] = Antitumor activity against human HCC2998 cells assessed as cell growth at 0.1 uM; format: functional; settings: HCC 2998, read-out: Activity
OVCAR-5 = test: Antitumor activity against human OVCAR5 cells assessed as cell growth at 0.1 uM; format: functional; settings: read-out: Activity
SK-MEL-2 = test: cells; settings: Homo sapiens, SK-MEL-2, read-out: Activity
Description: Antitumor activity against human SK-MEL-2 cells assessed as cell growth at 0.1 uM

OVCAR-8 = test: Antitumor activity against human OVCAR8 cells assessed as cell growth at 0.1 uM; format: functional; settings: read-out: Activity
HOP-92 = test: Antitumor activity against human HOP92 cells assessed as cell growth at 0.1 uM; format: functional; settings: read-out: Activity
MDA-MB-468 = test: Antitumor activity against human MDA-MB-468 cells assessed as cell growth at 0.1 uM; format: functional; settings: read-out: Activity
HOP-62 = test: Antitumor activity against human HOP62 cells assessed as cell growth at 0.1 uM; format: functional; settings: read-out: Activity
[3] = Antitumor activity against human EKVX cells assessed as cell growth at 0.1 uM; format: functional; settings: read-out: Activity
HCT-15 = test: Antitumor activity against human HCT15 cells assessed as cell growth at 0.1 uM; format: functional; settings: read-out: Activity
SNB-75 = test: Antitumor activity against human SNB75 cells assessed as cell growth at 0.1 uM; format: functional; settings: read-out: Activity
U-251 = test: Antitumor activity against human U251 cells assessed as cell growth at 0.1 uM; format: functional; settings: read-out: Activity
BT-549 = test: Antitumor activity against human BT549 cells assessed as cell growth at 0.1 uM; format: functional; settings: read-out: Activity
SK-OV-3 = test: Antitumor activity against human SKOV3 cells assessed as cell growth at 0.1 uM; format: functional; settings: read-out: Activity
KM12 = test: Antitumor activity against human KM12 cells assessed as cell growth at 0.1 uM; format: functional; settings: read-out: Activity
IGROV-1 = test: Antitumor activity against human IGROV1 cells assessed as cell growth at 0.1 uM; format: functional; settings: read-out: Activity
SF-268 = test: Antitumor activity against human SF268 cells assessed as cell growth at 0.1 uM; format: functional; settings: read-out: Activity
NCI-H23 = test: Antitumor activity against human NCI-H23 cells assessed as cell growth at 0.1 uM; format: functional; settings: read-out: Activity
NCI-H460 = test: Antitumor activity against human NCI-H460 cells assessed as cell growth at 0.1 uM; format: functional; settings: read-out: Activity
OVCAR-3 = test: Antitumor activity against human OVCAR3 cells assessed as cell growth at 0.1 uM; format: functional; settings: read-out: Activity
K562 = test: Antitumor activity against human K562 cells assessed as cell growth at 0.1 uM; format: functional; settings: read-out: Activity
SK-MEL-5 = test: Antitumor activity against human SK-MEL-5 cells assessed as cell growth at 0.1 uM; format: functional; settings: read-out: Activity
MCF7 = test: Antitumor activity against human MCF7 cells assessed as cell growth at 0.1 uM; format: functional; settings: read-out: Activity
Staphylococcus aureus = test: Antimicrobial activity against Staphylococcus aureus MTCC 96 assessed as growth inhibition measured after overnight incubation by broth dilution method; format: functional
SN12C = test: Antitumor activity against human SN12C cells assessed as cell growth at 0.1 uM; format: functional; settings: read-out: Activity
Aspergillus clavatus = test: Antimicrobial activity against Aspergillus clavatus MTCC 1323 assessed as growth inhibition measured after overnight incubation by broth dilution method; format: functional
MOLT-4 = test: Antitumor activity against human MOLT4 cells assessed as cell growth at 0.1 uM; format: functional; settings: read-out: Activity
SF-295 = test: Antitumor activity against human SF295 cells assessed as cell growth at 0.1 uM; format: functional; settings: read-out: Activity
786-0 = test: Antitumor activity against human 786-0 cells assessed as cell growth at 0.1 uM; format: functional; settings: read-out: Activity
RPMI-8226 = test: Antitumor activity against human RPMI8226 cells assessed as cell growth at 0.1 uM; format: functional; settings: read-out: Activity
T47D = test: Antitumor activity against human T47D cells assessed as cell growth at 0.1 uM; format: functional; settings: read-out: Activity
Escherichia coli = test: Antimicrobial activity against Escherichia coli MTCC 443 assessed as growth inhibition measured after overnight incubation by broth dilution method; format: functional
DU-145 = test: Antitumor activity against human DU145 cells assessed as cell growth at 0.1 uM; format: functional; settings: read-out: Activity
PC-3 = test: Antitumor activity against human PC3 cells assessed as cell growth at 0.1 uM; format: functional; settings: read-out: Activity
UO-31 = test: Antitumor activity against human UO31 cells assessed as cell growth at 0.1 uM; format: functional; settings: read-out: Activity
LOX IMVI = test: Antitumor activity against human LOXIMVI cells assessed as cell growth at 0.1 uM; format: functional; settings: read-out: Activity
MDA-MB-435 = test: Antitumor activity against human MDA-MB-435 cells assessed as cell growth at 0.1 uM; format: functional; settings: read-out: Activity
TK-10 = test: Antitumor activity against human TK10 cells assessed as cell growth at 0.1 uM; format: functional; settings: read-out: Activity
A549 = test: Antitumor activity against human A549/ATCC cells assessed as cell growth at 0.1 uM; format: functional; settings: read-out: Activity
Aspergillus niger = test: Antimicrobial activity against Aspergillus niger MTCC 282 assessed as growth inhibition measured after overnight incubation by broth dilution method; format: functional
NCI/ADR-RES = test: Antitumor activity against human NCI/ADR-RES cells assessed as cell growth at 0.1 uM; format: functional; settings: read-out: Activity
COLO 205 = test: Antitumor activity against human COLO205 cells assessed as cell growth at 0.1 uM; format: functional; settings: read-out: Activity
Streptococcus pyogenes = test: Antimicrobial activity against Streptococcus pyogenes MTCC 442 assessed as growth inhibition measured after overnight incubation by broth dilution method; format: functional
ACHN = test: Antitumor activity against human ACHN cells assessed as cell growth at 0.1 uM; format: functional; settings: read-out: Activity
Malme-3M = test: Antitumor activity against human MALME-3M cells assessed as cell growth at 0.1 uM; format: functional; settings: read-out: Activity
A498 = test: Antitumor activity against human A498 cells assessed as cell growth at 0.1 uM; format: functional; settings: read-out: Activity
Candida albicans = test: Antimicrobial activity against Candida albicans MTCC 227 assessed as growth inhibition measured after overnight incubation by broth dilution method; format: functional
HL-60 = test: Antitumor activity against human HL60(TB) cells assessed as cell growth at 0.1 uM; format: functional; settings: read-out: Activity
SK-MEL-28 = test: Antitumor activity against human SK-MEL-28 cells assessed as cell growth at 0.1 uM; format: functional; settings: read-out: Activity
MDA-MB-231 = test: Antitumor activity against human MDA-MB-231/ATCC cells assessed as cell growth at 0.1 uM; format: functional; settings: read-out: Activity
M14 = test: Antitumor activity against human M14 cells assessed as cell growth at 0.1 uM; format: functional; settings: read-out: Activity
HCT-116 = test: Antitumor activity against human HCT116 cells assessed as cell growth at 0.1 uM; format: functional; settings: read-out: Activity
RXF 393 = test: Antitumor activity against human RXF393 cells assessed as cell growth at 0.1 uM; format: functional; settings: read-out: Activity
NCI-H522 = test: Antitumor activity against human NCI-H522 cells assessed as cell growth at 0.1 uM; format: functional; settings: read-out: Activity
SW-620 = test: Antitumor activity against human SW620 cells assessed as cell growth at 0.1 uM; format: functional; settings: read-out: Activity
HT-29 = test: Antitumor activity against human HT-29 cells assessed as cell growth at 0.1 uM; format: functional; settings: read-out: Activity
SF-539 = test: Antitumor activity against human SF539 cells assessed as cell growth at 0.1 uM; format: functional; settings: read-out: Activity
Pseudomonas aeruginosa = test: Antimicrobial activity against Pseudomonas aeruginosa MTCC 2488 assessed as growth inhibition measured after overnight incubation by broth dilution method; format: functional
OVCAR-4 = test: Antitumor activity against human OVCAR4 cells assessed as cell growth at 0.1 uM; format: functional; settings: read-out: Activity
[4] = test system: Mycobacterium tuberculosis; test: Antitubercular activity against Mycobacterium tuberculosis H37Rv assessed as growth inhibition after 12 to 28 days by L.J. agar MIC method; format: functional
UACC-62 = test: Antitumor activity against human UACC62 cells assessed as cell growth at 0.1 uM; format: functional; settings: read-out: Activity
UACC-257 = test: Antitumor activity against human UACC257 cells assessed as cell growth at 0.1 uM; format: functional; settings: read-out: Activity

For `CN1CCN(C(=O)CSc2nnc(-c3cccnc3SCc3ccccc3)o2)CC1`, the growth at 0.1 µM (SR) was 79.8%, the growth at 0.1 µM [1] was 93.2% and the growth at 0.1 µM (CAKI-1) was 93.4%. For the same compound, the growth at 0.1 µM (SNB-19) was 82%, the growth at 0.1 µM [2] was 90.5% and the growth at 0.1 µM (OVCAR-5) was 101%. It also gave a growth at 0.1 µM (SK-MEL-2) of 101%, a growth at 0.1 µM (OVCAR-8) of 97.7% and a growth at 0.1 µM (HOP-92) of 43.3%. For the same compound, the growth at 0.1 µM (MDA-MB-468) was 74.8%, the growth at 0.1 µM (HOP-62) was 97% and the growth at 0.1 µM [3] was 70.7%. For the same compound, the growth at 0.1 µM (HCT-15) was 86.5%, the growth at 0.1 µM (SNB-75) was 83% and the growth at 0.1 µM (U-251) was 83.9%. For the same compound, the growth at 0.1 µM (BT-549) was 95.4%, the growth at 0.1 µM (SK-OV-3) was 101% and the growth at 0.1 µM (KM12) was 72.8%. The growth at 0.1 µM (IGROV-1) was 75.3%, the growth at 0.1 µM (SF-268) was 67.5% and the growth at 0.1 µM (NCI-H23) was 87.6%. For the same compound, the growth at 0.1 µM (NCI-H460) was 90.1%, the growth at 0.1 µM (OVCAR-3) was 92% and the growth at 0.1 µM (K562) was 83%. It also gave a growth at 0.1 µM (SK-MEL-5) of 84.8%, a growth at 0.1 µM (MCF7) of 76.7% and an MIC (Staphylococcus aureus) of 250 µg/mL (≈ 566 µM). For the same compound, the growth at 0.1 µM (SN12C) was 64.2%, the MIC (Aspergillus clavatus) was 1000 µg/mL (≈ 2260 µM) and the growth at 0.1 µM (MOLT-4) was 48.2%. It also gave a growth at 0.1 µM (SF-295) of 89.6%, a growth at 0.1 µM (786-0) of 109% and a growth at 0.1 µM (RPMI-8226) of 61.5%. It also gave a growth at 0.1 µM (T47D) of 55.3%, an MIC (Escherichia coli) of 100 µg/mL (≈ 226 µM) and a growth at 0.1 µM (DU-145) of 81.7%. For the same compound, the growth at 0.1 µM (PC-3) was 57.4%, the growth at 0.1 µM (UO-31) was 30.9% and the growth at 0.1 µM (LOX IMVI) was 90.3%. It also gave a growth at 0.1 µM (MDA-MB-435) of 93.8%, a growth at 0.1 µM (TK-10) of 115% and a growth at 0.1 µM (A549) of 68.5%. For the same compound, the MIC (Aspergillus niger) was 500 µg/mL (≈ 1130 µM), the growth at 0.1 µM (NCI/ADR-RES) was 89.2% and the growth at 0.1 µM (COLO 205) was 110%. It also gave an MIC (Streptococcus pyogenes) of 125 µg/mL (≈ 283 µM), a growth at 0.1 µM (ACHN) of 80.8% and a growth at 0.1 µM (Malme-3M) of 97.1%. For the same compound, the growth at 0.1 µM (A498) was 78.5%, the MIC (Candida albicans) was 500 µg/mL (≈ 1130 µM) and the growth at 0.1 µM (HL-60) was 70.3%. It also gave a growth at 0.1 µM (SK-MEL-28) of 107%, a growth at 0.1 µM (MDA-MB-231) of 56.5% and a growth at 0.1 µM (M14) of 99.6%. The growth at 0.1 µM (HCT-116) was 94.7%, the growth at 0.1 µM (RXF 393) was 89.1% and the growth at 0.1 µM (NCI-H522) was 71.3%. It also gave a growth at 0.1 µM (SW-620) of 97.2%, a growth at 0.1 µM (HT-29) of 93.7% and a growth at 0.1 µM (SF-539) of 98.6%. For the same compound, the MIC (Pseudomonas aeruginosa) was 200 µg/mL (≈ 453 µM), the growth at 0.1 µM (OVCAR-4) was 57.4% and the “growth inhibition (GI)” value [4] was 97%. It also gave an MIC ([4]; Mycobacterium tuberculosis, H37Rv) of 250 µg/mL (≈ 566 µM), a growth at 0.1 µM (UACC-62) of 76.8% and a growth at 0.1 µM (UACC-257) of 96.8%.
